What was measured:
Assay type in all cases: in vivo, rat
[1] = molecular target: T1, hM4Di receptors expressed in TG (Homo sapiens, UniProt P08173, A203G/Y113C); experiment: Orofacial formalin test after AAV5-hSyn-hM4Di-mCherry injection into TG (Example 1); conditions: rats with AAV5-hSyn-hM4Di-mCherry in TG, vs vehicle
T1 construct: expressed in transfected cells; host or cells: rat trigeminal ganglion neurons in vivo, transduced with AAV5 (synapsin promoter)
T1 sequence (P08173 1-479 Y113C/A203G): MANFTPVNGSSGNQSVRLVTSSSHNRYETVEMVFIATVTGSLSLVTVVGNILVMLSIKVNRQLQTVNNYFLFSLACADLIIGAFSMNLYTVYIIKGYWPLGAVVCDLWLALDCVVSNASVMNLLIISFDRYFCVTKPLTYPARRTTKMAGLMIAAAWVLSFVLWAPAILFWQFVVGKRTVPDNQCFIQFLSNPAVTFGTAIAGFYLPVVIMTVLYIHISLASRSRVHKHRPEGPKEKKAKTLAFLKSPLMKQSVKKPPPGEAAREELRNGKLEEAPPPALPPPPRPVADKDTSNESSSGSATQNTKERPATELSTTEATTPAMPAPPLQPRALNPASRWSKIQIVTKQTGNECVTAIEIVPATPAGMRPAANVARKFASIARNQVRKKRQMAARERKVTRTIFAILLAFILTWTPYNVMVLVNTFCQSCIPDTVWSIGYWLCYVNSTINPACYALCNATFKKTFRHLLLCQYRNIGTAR
Source text: The orofacial formalin model is well established for inducing behavioral and molecular changes indicating pain. The formalin model mimics the clinical situation of an acute insult that wanes rapidly. Models of trigeminal pain and their behavioral and molecular assessments have been described (Benoliel et al. (2001) Pain 91:111-21; Benoliel et al. (2001) Neurosci. Lett., 297:151-4; Benoliel et al. (2002) Pain 97:203-12; Benoliel et al. (2002) Pain 99:567-78). There is increased and intense directed facial grooming following injection of formalin into the rat vibrissal pad, and the duration of grooming is thought to represent the level of pain (Clavelou et al. (1995) Pain 62:295-301; Raboisson et al. (1995) J. Neurophysiol., 73:496-505; Sukriti et al. (2004) Methods Find Exp. Clin. Pharmacol., 26:253-6). At day 37 after virus injection (to allow for viral transfection and DREADD expression), acute pain was induced by subcutaneous injection of 50 μL of 1.5% formalin into the rat's vibrissal pad. Formalin activates Aδ and C nociceptors as well as trigeminal and spinal nociceptive neurons. Formalin-induced unilateral pain is biphasic, with an early short-lasting (3-5 minutes) phase, followed after a quiescent period by a second, prolonged (20-40 minutes) tonic phase. The orofacial formalin test is a valid and reliable way of producing and quantifying nociception in the trigeminal region of the rat (Raboisson et al. (2004) Neurosci. Biobehay. Rev., 28:219-26; Le Bars et al. (2001) Pharmacol. Rev., 53:597-652; Vos et al. (1998) Pain 76:173-8). The concentration of formalin used allows for the detection of both hypo- and hyperalgesic effects. The time that the animal spends rubbing the injected area with fore- or hind paws was recorded. Thirty minutes prior to injecting formalin the animals received CNO ([…], ip) or vehicle treatment.

hSyn-hM4D = molecular target: T2, hSyn-hM4D (Homo sapiens, UniProt P08173, A203G/Y113C); experiment: Pain-like behavior after infraorbital nerve chronic constriction injury (IoN-CCI), synapsin-DREADD (hSyn-hM4D); conditions: IoN-CCI males
T2 construct: expressed in transfected cells; host or cells: rat trigeminal ganglion neurons in vivo, viral vector with synapsin promoter
T2 sequence (P08173 1-479 Y113C/A203G): T1 sequence (P08173 1-479 Y113C/A203G)
Source text: For the infraorbital nerve chronic constriction injury (ION-CCI), ˜0.5 cm of the infraorbital nerve will be freed and two chromic gut ligatures will be loosely tied around it (2 mm apart) prior to closure of the incision (all performed under ketamine/xylazine anesthesia). As a control, other rats will undergo sham surgery where the infraorbital nerve is exposed but left untouched. This model results in persistent pain beginning at about 2 weeks postoperatively and lasting at least 3 weeks (Benoliel et al. (2001) Neurosci. Lett., 297:151-4; Benoliel et al. (2002) Pain 97:203-12), allowing for the assessment of the effect of vehicle vs CNO/DREADD-mediated inhibition of TG neurons on this behavior at multiple time points. Fos expression and cAMP levels may also be measured in the TG to correlate these molecular endpoints to behavioral effects of DREADD activation. The rats will also undergo repeated stimulation with a 2-g von Frey hair applied to the hairy skin of the vibrissae on the operated side to induce Fos (Vos et al. (1995) J. Comp. Neurol., 357:362-75). Activation of hM4Di receptors will reduce Fos in the TG following von Frey stimulation.
The effects of synapsin-DREADD activation with CNO on pain-like behavior following chronic constriction injury (CCI) of the infraorbital nerve (ION) were also studied (FIG. 6). The mean von Frey detection thresholds (±SEM) (left) and the mean response scores (±SEM) (right) to the pin-prick stimulation applied to the vibrissal pads were plotted. All animals (males, n=4 per group) were exposed to the infraorbital nerve chronic constriction injury (IoN-CCI) unilaterally. Following IoN-CCI, all animals had synapsin-DREADD (hSyn-hM4D) injected into the ipsilateral trigeminal ganglion. At post-operative day 26 (D26) CNO or vehicle was delivered intraperitoneally 30 minutes prior to behavioral testing.

hTac1-hM4D = molecular target: T3, hTac1-hM4D (Homo sapiens, UniProt P08173, A203G/Y113C); experiment: von Frey detection threshold, Tac1-DREADD (hTac1-hM4D) in right trigeminal ganglion, non-CCI animals; conditions: females, n=7 per group, CNO i.p. vs vehicle
T3 construct: expressed in transfected cells; host or cells: rat trigeminal ganglion neurons in vivo, viral vector with Tac1 promoter
T3 sequence (P08173 1-479 Y113C/A203G): T1 sequence (P08173 1-479 Y113C/A203G)
Source text: The effects of Tac1-DREADD activation with CNO on von Frey detection threshold were also studied (FIG. 7). All animals (female, n=7 per group) had Tachykinin 1-DREADD (hTac1-hM4D; Tac1 promoter driven DREADD) injected into the right trigeminal ganglion. Average von Frey detection thresholds (±SEM) are plotted following intraperitoneal administration of CNO or vehicle.

[2] = CNO ip 30 min prior to formalin

C[N+]1([O-])CCN(C2=Nc3cc(Cl)ccc3Nc3ccccc32)CC1 [CNO, clozapine N-oxide]
total time spent grooming after formalin ([1]; CNO (10 mg/ml, ip) 30 min prior to 50 μL 1.5% formalin s.c. vibrissal pad, day 37 after virus, n=3/group, p<0.04): significantly reduced | grooming in early phase (<9 minutes) after formalin [1, 2]: trends to reduce | grooming in late phase (9-45 minutes) after formalin [1, 2]: trends to reduce | pin-prick response score, contralateral side (hSyn-hM4D; CNO i.p. at D26): No significant effects | von Frey detection threshold, contralateral side (hSyn-hM4D; CNO i.p. at D26): No significant effects | von Frey detection threshold, ipsilateral side, compared to post-operative days 21 and 27 (hSyn-hM4D; CNO i.p. at D26, D21 F=20.4, P=0.004, D27 F=7.8, P=0.03): significantly increased | pin-prick response score, ipsilateral side, compared to post-operative days 21 and 27 (hSyn-hM4D; CNO i.p. at D26, D21 F=32, P=0.001, D27 F=21, P=0.004): significantly decreased | von Frey detection threshold, ipsilateral side, compared to vehicle treated animals (hSyn-hM4D; n=4 per group, CNO i.p. at D26, 30 min prior to testing, F=7.8, P=0.03): significantly increased | pin-prick response score, ipsilateral vibrissal pad, compared to vehicle treated animals (hSyn-hM4D; n=4 per group, CNO i.p. at D26, F=7.7, P=0.03): significantly decreased | von Frey detection threshold, contralateral vibrissal pad (hTac1-hM4D; F=0.4, P=0.6): no significant effect | von Frey detection threshold, ipsilateral vibrissal pad (hTac1-hM4D; F=1.4, P=0.3): no significant effect

Reference: US20190046662A1, “Compositions and Methods for Treating Neuropathic Pain” (Rutgers, The State University of New Jersey, priority 2016, published 2019)
